Biological target: T1, TLR8 (Homo sapiens, UniProt Q9NR97)
T1 sequence (Q9NR97 27-1041): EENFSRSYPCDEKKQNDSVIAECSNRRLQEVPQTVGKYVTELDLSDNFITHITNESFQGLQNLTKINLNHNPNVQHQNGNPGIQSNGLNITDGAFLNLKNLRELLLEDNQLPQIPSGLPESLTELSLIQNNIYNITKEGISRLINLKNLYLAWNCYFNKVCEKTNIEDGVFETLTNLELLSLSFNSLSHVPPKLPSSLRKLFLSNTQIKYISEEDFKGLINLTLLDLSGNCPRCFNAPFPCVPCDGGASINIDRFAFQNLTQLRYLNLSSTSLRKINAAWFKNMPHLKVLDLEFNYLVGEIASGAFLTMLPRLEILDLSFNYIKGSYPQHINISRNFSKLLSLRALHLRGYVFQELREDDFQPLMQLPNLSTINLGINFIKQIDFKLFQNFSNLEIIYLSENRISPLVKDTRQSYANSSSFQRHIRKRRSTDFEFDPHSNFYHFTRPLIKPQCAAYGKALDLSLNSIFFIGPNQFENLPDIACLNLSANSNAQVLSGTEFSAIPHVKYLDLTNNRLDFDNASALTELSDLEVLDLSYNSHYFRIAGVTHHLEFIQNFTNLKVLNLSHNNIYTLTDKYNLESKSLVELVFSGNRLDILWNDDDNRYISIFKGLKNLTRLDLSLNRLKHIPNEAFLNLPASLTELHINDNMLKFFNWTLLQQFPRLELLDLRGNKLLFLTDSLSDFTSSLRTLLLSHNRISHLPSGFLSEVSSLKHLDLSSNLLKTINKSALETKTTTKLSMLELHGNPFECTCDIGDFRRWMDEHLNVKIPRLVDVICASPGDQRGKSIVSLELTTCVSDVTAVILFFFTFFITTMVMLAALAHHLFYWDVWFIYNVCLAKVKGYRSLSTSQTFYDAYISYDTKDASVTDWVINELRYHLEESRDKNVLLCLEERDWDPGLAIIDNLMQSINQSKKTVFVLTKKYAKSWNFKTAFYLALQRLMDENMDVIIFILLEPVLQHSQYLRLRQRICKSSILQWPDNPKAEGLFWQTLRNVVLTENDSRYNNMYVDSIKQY
Assay: HEK-TLR8 NF-κB-luciferase reporter, R848 or Motolimod stimulation (potentiation or inhibition)
Type: cell-based
Set-up: expressed in transfected cells; host or cells: 293XLhTLR8 (HEK293)
Conditions: relative to R848 only; for TLR8 100 nM (averaged NF-κB-Luciferase level relative to R848 condition, fold increase): ASO 100 nM; for TLR8 500 nM (averaged NF-κB-Luciferase level relative to R848 condition, fold increase): ASO 500 nM
Description: (§1) In such examples, potentiation of TLR8 activity can be identified by observation of an overall increased TLR8 response of the cell population, or a higher proportion of cells having TLR8-positive activity as compared to a negative control condition in which cells are treated with TLR8 agonist in the absence of the oligonucleotide (or in the presence of an appropriate control non-potentiating agent). In one example, 293XLhTLR8 (referred to as HEK-TLR8) cells are transfected with pNF-κB-Luc4 reporter, incubated with an oligonucleotide, and then stimulated with R848. TLR8 activity can be determined by a luciferase assay, which measures activated NF-κB by luminescence. TLR8 activity can also be analysed by measuring cytokine levels, for example by ELISA.
as §1, with “inhibition” for “potentiation”, “decreased” for “increased”, “lower” for “higher”, “positive” for “negative”, “inhibitory” for “non-potentiating”
For cGAS stimulations, cells were treated for indicated duration with ASOs, prior to transfection with ISD70 (human cells) or ISD45 (mouse cells) (the ASOs were not washed off prior to ISD transfection unless otherwise indicated). The cGAS ligands ISD45 (Stetson and Medzhitov, 2006) and ISD70 (also known as VACV-70 (Unterholzner et al., 2010)) (Table 1) were resuspended as follows: 5 1d of sense and 5 μl of antisense strands at 10 μg/μl were added to 90 μl PBS under sterile conditions, heated at 75° C. for 30 min, prior to letting cool down at room temperature and aliquoting (stock at 1 μg/1 l). The ISDs were transfected at a concentration of […] at a ratio of 1 μg:1 μl with Lipofectamine 2000 in Opti-MEM (Thermo Fisher Scientific). HEK-TLR3, HEK-TLR7 and […] were treated with indicated concentration of ASOs for 20-50 min, prior to stimulation with poly(I:C) (Invivogen), R848 (Invivogen), Motolimod (MedChemExpress) and the Class B CpG oligonucleotides ODN 2006 (synthesised by IDT and resuspended in RNase-free TE buffer [Table 1]), respectively. The TLR2/1 agonist PAM3CSK4 (Invivogen), the TLR4 agonist lipopolysaccharide (Invivogen), the Class B CpG oligonucleotides ODN 1826 (synthesised by IDT and resuspended in RNase-free TE buffer), the mouse Sting agonist DMXAA (Cayman) and the human STING agonist (compound #3 from (Raanjulu et al., 2018), referred to as GSK herein—kind gift from Cancer Therapeutics CRC, Australia) were used at indicated concentrations. Aspirin (Sigma—A2093) was resuspended in pure medium to 10 mM, filter sterilised and added to the cells at 2 mM final. All ASOs were synthesised by Integrated DNA Technologies (IDT), and resuspended in RNase-free TE buffer, pH 8.0 (Thermo Fisher Scientific). Cell viability was assessed by adding 1× fresh resazurin solution to the wells (10λ solution made up with 7 mg resazurin [Sigma—R7017] dissolved in 3.5 ml PBS, sterile filtered at […]) for 4 h, prior to reading at with a Fluostar OPTIMA (BMG LABTECH) plate-reader (fluorescence: Excitation 535 nm, Emission 590); wells with medium only and 1× resazurin were used as blanks.

In the case of “ACACTTCGTGGGGTCC (antisense; LNA-modified, pattern not given here) [HPRT LNA-665 V1]”, the “TLR8 100 nM (averaged NF-κB-Luciferase level relative to R848 condition, fold increase)” value is reported as 0.422 and the “TLR8 500 nM (averaged NF-κB-Luciferase level relative to R848 condition, fold increase)” value is reported as 1.029.
For “CAACACTTCGTGGGGT (antisense; LNA-modified, pattern not given here) [HPRT LNA-667 V1]”, the “TLR8 100 nM (averaged NF-κB-Luciferase level relative to R848 condition, fold increase)” value was 0.591 and the “TLR8 500 nM (averaged NF-κB-Luciferase level relative to R848 condition, fold increase)” value was 0.690.
With “CCAAGATCAGCAGTCT (antisense; LNA-modified, pattern not given here) [CTNN2B-2341 LNA KL]” the “TLR8 100 nM (averaged NF-κB-Luciferase level relative to R848 condition, fold increase)” value was 1.015 and the “TLR8 500 nM (averaged NF-κB-Luciferase level relative to R848 condition, fold increase)” value was 2.920.
“CCATCCATGAGGTCCT (antisense; LNA-modified, pattern not given here) [CTNN2B-2545 LNA V1]” was tested, and the “TLR8 100 nM (averaged NF-κB-Luciferase level relative to R848 condition, fold increase)” value was 0.675 and the “TLR8 500 nM (averaged NF-κB-Luciferase level relative to R848 condition, fold increase)” value was 1.169.
In the case of “GATAGCACCTTCAGCA (antisense; LNA-modified, pattern not given here) [CTNN2B-1294 LNA KL]”, the “TLR8 100 nM (averaged NF-κB-Luciferase level relative to R848 condition, fold increase)” value is reported as 0.821 and the “TLR8 500 nM (averaged NF-κB-Luciferase level relative to R848 condition, fold increase)” value is reported as 2.863.
For “GCAGGCTCAGTGATGT (antisense; LNA-modified, pattern not given here) [CTNN2B-1642 LNA V1]”, the “TLR8 100 nM (averaged NF-κB-Luciferase level relative to R848 condition, fold increase)” value was 0.638 and the “TLR8 500 nM (averaged NF-κB-Luciferase level relative to R848 condition, fold increase)” value was 1.440.
“GCATCCACCACGTCGT (antisense; LNA-modified, pattern not given here) [EGFR-3267 LNA V1]” was tested, and the “TLR8 100 nM (averaged NF-κB-Luciferase level relative to R848 condition, fold increase)” value was 0.607 and the “TLR8 500 nM (averaged NF-κB-Luciferase level relative to R848 condition, fold increase)” value was 0.738.
For “GCCATCCACTTGATAG (antisense; LNA-modified, pattern not given here) [EGFR-2874 LNA V1]”, the “TLR8 100 nM (averaged NF-κB-Luciferase level relative to R848 condition, fold increase)” value was 0.440 and the “TLR8 500 nM (averaged NF-κB-Luciferase level relative to R848 condition, fold increase)” value was 0.681.
“GCCATGCTGGCTCGGA (antisense; LNA-modified, pattern not given here) [CAMSAP1-2584 LNA V1]” was tested, and the “TLR8 100 nM (averaged NF-κB-Luciferase level relative to R848 condition, fold increase)” value was 0.446 and the “TLR8 500 nM (averaged NF-κB-Luciferase level relative to R848 condition, fold increase)” value was 0.363.
With “GCCATGTTTCTTCTTG (antisense; LNA-modified, pattern not given here) [MB21D1-1248 LNA KL]” the “TLR8 100 nM (averaged NF-κB-Luciferase level relative to R848 condition, fold increase)” value was 0.430 and the “TLR8 500 nM (averaged NF-κB-Luciferase level relative to R848 condition, fold increase)” value was 0.431.
With “GGCTGGAATCCGAGTT (antisense; LNA-modified, pattern not given here) [EGFR-4705 LNA KL]” the “TLR8 100 nM (averaged NF-κB-Luciferase level relative to R848 condition, fold increase)” value was 0.562 and the “TLR8 500 nM (averaged NF-κB-Luciferase level relative to R848 condition, fold increase)” value was 0.577.
“GGTTACGGCTCAGTAT (antisense; LNA-modified, pattern not given here) [CAMSAP1-4295 LNA KL]” was tested, and the “TLR8 100 nM (averaged NF-κB-Luciferase level relative to R848 condition, fold increase)” value was 0.804 and the “TLR8 500 nM (averaged NF-κB-Luciferase level relative to R848 condition, fold increase)” value was 1.848.
With “GTATCGAAAGAGTCTG (antisense; LNA-modified, pattern not given here) [EGFR-3908 LNA KL]” the “TLR8 100 nM (averaged NF-κB-Luciferase level relative to R848 condition, fold increase)” value was 0.637 and the “TLR8 500 nM (averaged NF-κB-Luciferase level relative to R848 condition, fold increase)” value was 1.781.
“GTCCCCTGTTGACTGG (antisense; LNA-modified, pattern not given here) [HPRT LNA-489 KL]” was tested, and the “TLR8 100 nM (averaged NF-κB-Luciferase level relative to R848 condition, fold increase)” value was 0.335 and the “TLR8 500 nM (averaged NF-κB-Luciferase level relative to R848 condition, fold increase)” value was 0.304.
For “GTCTTGGCTTCGTGGA (antisense; LNA-modified, pattern not given here) [MB21D1-522 LNA V1]”, the “TLR8 100 nM (averaged NF-κB-Luciferase level relative to R848 condition, fold increase)” value was 0.678 and the “TLR8 500 nM (averaged NF-κB-Luciferase level relative to R848 condition, fold increase)” value was 2.137.
For “GTGTCTGGAAGCTTCC (antisense; LNA-modified, pattern not given here) [CTNN2B-809 LNA V1]”, the “TLR8 100 nM (averaged NF-κB-Luciferase level relative to R848 condition, fold increase)” value was 0.923 and the “TLR8 500 nM (averaged NF-κB-Luciferase level relative to R848 condition, fold increase)” value was 2.057.
“GTTCAGTCCTGTCCAT (antisense; LNA-modified, pattern not given here) [HPRT LNA-292 V1]” was tested, and the “TLR8 100 nM (averaged NF-κB-Luciferase level relative to R848 condition, fold increase)” value was 1.069 and the “TLR8 500 nM (averaged NF-κB-Luciferase level relative to R848 condition, fold increase)” value was 4.129.
In the case of “TCCAACACTTCGTGGG (antisense; LNA-modified, pattern not given here) [HPRT LNA-669 V1]”, the “TLR8 100 nM (averaged NF-κB-Luciferase level relative to R848 condition, fold increase)” value is reported as 0.413 and the “TLR8 500 nM (averaged NF-κB-Luciferase level relative to R848 condition, fold increase)” value is reported as 0.491.
“TCGTAGTTGCTTCCTA (antisense; LNA-modified, pattern not given here) [MB21D1-1181 LNA KL]” was tested, and the “TLR8 100 nM (averaged NF-κB-Luciferase level relative to R848 condition, fold increase)” value was 0.557 and the “TLR8 500 nM (averaged NF-κB-Luciferase level relative to R848 condition, fold increase)” value was 1.583.
In the case of “TGATGGCCTCCCATCT (antisense; LNA-modified, pattern not given here) [HPRT LNA-332 V1]”, the “TLR8 100 nM (averaged NF-κB-Luciferase level relative to R848 condition, fold increase)” value is reported as 0.374 and the “TLR8 500 nM (averaged NF-κB-Luciferase level relative to R848 condition, fold increase)” value is reported as 0.263.
With “TGCACACTTCGTACCC (antisense; LNA-modified, pattern not given here) [CAMSAP1-4916 LNA V1]” the “TLR8 100 nM (averaged NF-κB-Luciferase level relative to R848 condition, fold increase)” value was 0.411 and the “TLR8 500 nM (averaged NF-κB-Luciferase level relative to R848 condition, fold increase)” value was 0.370.
In the case of “TGGCCTCCCATCTCCT (antisense; LNA-modified, pattern not given here) [HPRT LNA-329 V1]”, the “TLR8 100 nM (averaged NF-κB-Luciferase level relative to R848 condition, fold increase)” value is reported as 0.495 and the “TLR8 500 nM (averaged NF-κB-Luciferase level relative to R848 condition, fold increase)” value is reported as 1.127.
With “TGTGATGGCCTCCCAT (antisense; LNA-modified, pattern not given here) [HPRT LNA-334 V1]” the “TLR8 100 nM (averaged NF-κB-Luciferase level relative to R848 condition, fold increase)” value was 0.582 and the “TLR8 500 nM (averaged NF-κB-Luciferase level relative to R848 condition, fold increase)” value was 1.596.

Reference: patent US20240384268A1, “Oligonucleotides” (Hudson Institute of Medical Research, priority 2021, published 2024)
